These results are taken from patent US5985856A, “Water soluble prodrugs of secondary and tertiary amine containing drugs and methods of making thereof” (University of Kansas, priority 1998, dated 1999).

One may read the solubility as the concentration that dissolves in the medium under given conditions. Usually pKa stands for the pH at which an ionisable group is half protonated. For orientation: Vd means the apparent volume that relates the amount in the body to the concentration in plasma or blood. Read a low Vd as confinement near the circulation. The clearance is a measure of how efficiently the substance is removed, as volume per time. Higher therefore signals a high capacity for elimination. Usually half-life stands for the time needed for the level to fall by half in the phase considered.

A short description of series [1]: physchem. The class given is physicochemical. As to the method: Loxamine succinate is obtained from Research Biochemicals Incorporated (Natick, Mass.). […] Each pH solution is a 0.05 M buffered solution with an ionic strength adjusted to μ=0.2 with NaCl. The pH values along with their buffer composition are listed: pH 3.24, HCl/CH3 COONa; pH 3.96 and 4.96, CH3 COOH/CH3 COONa; pH 5.82-7.94, NaH2 PO4 /Na2 HPO4; pH 8.95 and 9.98, H3 BO3 /NaOH. The volume of buffer used in the experiments varies; samples with pH equal to or below 4.96 utilize 2 ml of buffer whereas the higher pH samples has a volume of 5 ml. […] The vials are then capped, sonicated and vortexed prior to submersion in a constant temperature shaking water bath at 25° C. The samples are shaken at a rate of 100 shakes/min. for at least 24 hours. […] The filtrates/supernatants are then appropriately diluted for quantification by HPLC. […] A C-18 reversed phase column (150×4 mm, ODS Hypersil, 5 μm particle size) is used for the analysis. The HPLC assays are carried out using UV detection at 254 nm. The mobile phase consists of acetonitrile and 25 mM of aqueous potassium phosphate monobasic solution adjusted to pH 3.8 with phosphoric acid. 0.15% of triethylamine is contained in the aqueous buffer.

The nature of series [2]: physchem. Type of series: physicochemical. The note with it: for solubility: 24 h. As to the method:
Each pH solution contains 0.05 M buffer with an ionic strength adjusted to μ=0.2 with NaCl. The pH 3 buffer composition is HCl/CH3 COONa; whereas, the pH 7.4 buffer composition is NaH2 PO4 /Na2 HPO4. The volume of buffer used in the experiments is 150 μl. To this is added excess of the loxapine prodrug in one ml glass screw top vials. The vials are then capped, sonicated and vortexed prior to submersion in a constant temperature shaking water bath at 25° C. The samples are shaken at a rate of 100 shakes/min. for at least 24 hours. The suspensions are then placed in a micro centrifuge to precipitate the excess drug. A volume of 50 μl of the supernatant is then appropriately diluted with water for quantification by reverse phase HPLC. […] A C-18 reversed phase column (150×4 mm, ODS Hypersil, 5 μm particle size) is used for the analysis. The HPLC assays are carried out using UV detection at 254 nm. The mobile phase consists of acetonitrile and 25 mM of aqueous potassium phosphate monobasic solution adjusted to pH 3.8 with phosphoric acid. 0.15% of triethylamine is contained in the aqueous buffer. The ratio of organic:aqueous is 32:68. The retention time is 4.2 min. when the flow rate is adjusted to 1 ml/min.

A short description of series [3]: Preliminary visual solubility estimates of synthesized prodrugs. The note with it: preliminary visual estimate, pH 7.4. The class given is physicochemical. The text has this: The present prodrugs are designed to increase the aqueous solubility and safety of amine-containing drugs. Preliminary visual solubility estimates for each of the prodrugs are listed below in Table 2.

Series [4] can be described thus: pKa determination by 31P NMR method. The note with it: 10% d2o in h2o.
Series [5] in a line: in vivo. The following applies: dog, iv.
Description: (§1) Cinnarizine for i.v. injection was prepared in a 10 mM phosphate buffer solution at pH 4.5 at a concentration of 12.5 mg/10 ml (3.39 mM) along with 37.5 mM sulfobutylether 4 beta-cyclodextrin as a solubilizing excipient. The cyclodextrin solution (10 ml) was prepared first and the pH adjusted to 3.5 with HCl. The cinnarizine was then added and the solution was sonicated for three hours and subsequently stirred overnight. The pH was then adjusted to 4.5 with NaOH along with the addition of 29 mg of NaCl to adjust for isotonicity. The solution was then passed through a 0.22 μM nylon-membrane filter just prior to administration. The prodrug injection was prepared by dissolving 16.97 mg or cinnarizine prodrug in 10 ml of 0.9% NaCl sterile solution (3.39 mM) for injection. The solution was passed through a 0.22 μM nylon-membrane filter just prior to injection.
(§2) The evaluation of the cinnarizine plasma concentration versus time was conducted with a male beagle dog weighing 11.1 kg. The dog received the cinnarizine injection followed by a two-week washout period then received the prodrug injection in an equal molar quantity. Samples were taken from the dog prior to dosing (10 ml blank plasma) and 2, 6, 10, 20, 40 min and 1, 2, 4, 6, 8, 24 hours post-dosing (3 ml each). Blood samples were drawn from either cephalic, saphenous, or jugular vein. The samples were centrifuged for 10 minutes and 1 ml of plasma was measured and frozen at -20° C. prior to sampling by HPLC. The dog received a regular diet between experiments and was fasted the day of the experiment.
(§3) Plasma concentrations of cinnarizine were determined by HPLC with fluorescence detection. To each one milliliter of plasma was added: 100 μL of acetonitrile-H2O (70:30, v/v), containing 40 μg meclizine (internal standard), and 100 μL of 0.5 M HCl. The plasma sample was then vortexed for 30 seconds. One ml of carbon tetrachloride was then combined with the sample for an additional one minute of vortexing. Samples were then centrifuged for ten minutes after which the carbon tetrachloride was removed and evaporated to dryness under a stream of dry nitrogen. The residue was then redissolved in 200 μL of acetonitrile-H2 O (70:30, v/v) prior to sampling by HPLC. The results were calculated from peak area ratios. A six-point standard curve was obtained using the above procedure with addition of cinnarizine concentrations in the range of 5.5 to 550 ng/ml of plasma. A three-point calibration was performed on the day of the study using high, medium and low cinnarizine concentrations. This calibration was used for the quantification of cinnarizine concentration in the samples.
(§4) The HPLC system consisted of a Shimadzu LC-6A pump (Kyoto, Japan), a Rheodyne 7125 injector (Cotati, Calif.), a Shimadzu RF-535 Fluorescence HPLC monitor (Kyoto, Japan), and a Shimadzu CR-601 integrator (Kyoto, Japan). The HPLC conditions were as follows: injection volume, 50 μL; flow rate, 1.5 ml/min; excitation at 260 nm and emission at 315 nm. The stationary phase was a C18 ODS Hypersil reverse phase column (15 cm×4.6 mm i.d., 5 μM). The mobile phase was a 7 to 3 ratio of aceronitrile to buffer, respectively. The buffer consisted of 25 mmole potassium dihydrogen phosphate (adjusted to pH 3.9 with phosphoric acid) and 10 mM tetrabutyl ammonium dihydrogen phosphate.
(§5) Pharmacokinetic analysis was performed on the semilogarithmic plot of cinnarizine plasma concentration versus time post dosing for both the cinnarizine and cinnarizine prodrug injections. […] The equation had the form: C=A1e^-A1t +A2e^-A2t +A3e^-A3t, where t is time. Plasma terminal half life (t1/2) is calculated from t1/2 =0.693/λ3.
Series [6] in a line: Pharmacokinetic evaluation of cinnarizine plasma concentration after i.v. injection. The following applies: male beagle dog.
Description: as §1, §2, §3, §4, §5
Series [7] is described as follows: physchem. Type of series: physicochemical. The following applies: water. As to the method:
A 0.01 M quinuclidine prodrug aqueous solution is titrated using a burette containing a 0.1 N sodium hydroxide volumetric standard solution obtained from Aldrich Chemical Company (Milwaukee, Wis.). […] This experiment is conducted at 25° C.
The first ionization constant, Ka1, is expected to be low and to be of little physiological importance; however, Ka2 is of much greater importance. With this in mind, the second ionization constant (Ka2) for the phosphate monoester promoiety of the quinuclidine was determined by two methods. These methods were potentiometric titration and ^31 P NMR. The potentiometric titration is by far the most traditional and accepted means for estimating pKa values; however, it has one main disadvantage. It requires significant quantities of, difficult to synthesize, prodrug. The quinuclidine prodrug is, by far, the simplest prodrug to synthesize and was chosen for the following experiments for that reason. For the potentiometric titration method, the volume of base added was plotted against the change in pH. This plot allows one to determine the volume of base required to reach the endpoint of the titration.

A short description of series [8]: physchem. The note with it: 10% d2o in h2o.
For series [9] the following is noted: dog, in vivo.
Description: as §1, §2, §3, §4, §5
Where [10] appears, read: 0.05 m hcl/ch3coona buffer, pH 3.
Where [11] appears, read: 0.05 m nah2po4/na2hpo4 buffer, pH 7.4.

Structures are written as SMILES. Values after ≈ are worked out from the molar mass of the structure shown. Like-named read-outs stand apart in the source and are kept apart here.

With `CN1CCN(C2=Nc3ccccc3Oc3ccc(Cl)cc32)CC1` [Loxapine free base, Loxapine], the solubility was found to be 0.0126 mg/mL (≈ 0.0384 mM) in series [1] (0.05 m buffer, aqueous buffer) and 8.23 mg/mL (≈ 25.1 mM) in [1] (hcl/ch3coona buffer, pH 3.24).
Regarding `C[N+]1(COP(=O)([O-])O)CCN(C2=Nc3ccccc3Oc3ccc(Cl)cc32)CC1` [loxapine prodrug], the figures for the solubility in series [2] (setting [10]), in [2] (setting [11]) and in series [3] were 290.5 ± 2.9 mg/mL (≈ 664 mM), 648.2 ± 0.6 mg/mL (≈ 1480 mM) and above 600 mg/mL, respectively. In addition, the solubility at 24 h in series [2] (setting [10]) was 290.5 ± 2.9 mg/mL (≈ 664 mM); in series [2] (setting [11]) it was 648.2 ± 0.6 mg/mL (≈ 1480 mM). Also, the “solubility limit relative to the concentration used in the parenteral formulation (50 mg/ml loxapine)” value in series [2] (without cosolvents) was found to be 9.7 times. Besides, the pKa in series [4] was determined as 4.7.
In series [5], `C(=C\c1ccccc1)/CN1CCN(C(c2ccccc2)c2ccccc2)CC1` [Cinnarizine] gave a Vd of 21.7 L/kg, a clearance of 19.5 mL/min/kg and a half-life of 12 h. For the same molecule, the “observable signs of discomfort or toxicity after injection” value in series [6] is on record as “no observable signs of discomfort or toxicity”.
In the case of `O=P([O-])(O)OC[N+]12CCC(CC1)CC2` [quinuclidine prodrug], the figures for the pKa in series [7] and in series [8] were 5 and 4.9, respectively.
For the molecule `O=P([O-])(O)OC[N+]1(C/C=C/c2ccccc2)CCN(C(c2ccccc2)c2ccccc2)CC1` [cinnarizine prodrug], in series [3], the solubility is above 5 mg/mL. Moreover, the “conversion of prodrug to cinnarizine upon intravenous administration” value in series [9] is “rapidly and quantitatively converted to cinnarizine”. In series [9] (iv), the Cl turned out to be 19.5 mL/min/kg, the distribution volume (Vd) came to 21.2 L/kg and the “t1/2 (plasma terminal half life of cinnarizine)” value was 12.6 h. In series [6], the “observable signs of discomfort or toxicity after injection” value is “no observable signs of discomfort or toxicity”.
As to `CCCCc1oc2ccccc2c1C(=O)c1cc(I)c(OCC[N+](CC)(CC)COP(=O)([O-])O)c(I)c1` [amiodarone prodrug], the solubility in series [3] is above 5 mg/mL.
